Measured values published in BindingDB's records for doi:10.1021/jm00170a025 (Royal Danish School of Pharmacy, 1990).

Test: Effective concentration required to stimulate Adenylate cyclase

Cc1ccc([C@H]2CNCCc3cc(O)c(O)cc32)cc1
EC50: 210 nM
